From patent EP0230023B1, “Pharmaceutical compositions for the enhancement of wound healing” (MARION MERRELL DOW INC., priority 1985, dated 1987)

Legend:
rabbit corneas = test: Rabbit cornea assay for angiogenesis; format: in vivo; details: grade on scale 0-4+ in rabbit cornea; potassium salts
Method: This may offer an explanation for the dense vascular bed that characterized the granulation tissue in the in-vivo experiments. Sucrose octasulate at concentrations of 0.1 to 100 µg/ml was encapsulated in Hydron and implanted in rabbit corneas. The method used was that described in Surgery 96:48-54, 1984. The […] solution (sucrose octasulfate or PBS) was mixed with an equal volume of Hydron and allowed to polymerize under reduced pressure. […] Eyes were evaluated at days 1 through 14 post-implantation for gross inflammation and, as described by Hunt, et al, in Surgery 96:48-54, 1984, for angiogenesis. Corneal neovascularization was graded on a scale of 0-4+ (integers only being assigned). Zero denotes a normal eye with no ingrowth on limbal vessels into the corneal stroma; 1+, up to 1 mm of capillary ingrowth in a localized arc adjacent to the injection site; 2+, […] ingrowth; 3+, 2-3 mm ingrowth; and 4+, 3 mm or greater ingrowth in a wide arc along the limbal edge toward the injection site. […] To ascertain that the observed angiogenesis was not secondary to an inflammatory process some eyes with a positive response were removed and stained with H&E and a nonspecific esterase stain as early as two days after implantation.

fibroblasts = test: Cell migration assay (Boyden chamber); format: cell-based; parameters: Chemokinesis: scale not given here; details: score, Boyden chamber, scale not defined; potassium salts
Method: Stimulation of directed movement of fibroblasts was assayed as described by Banda M.J., Knighton D.R., Hunt T.K., Werb A., Isolation of a nonmitogenic angiogenesis factor from wound fluid, Proc. Natl. Acad. Sci. 79:7773-7777, 1982. Briefly, solutions of sucrose octasulfate in PBS in concentrations resulting in final concentrations ranging from 10 -² to 10 -⁷ g/ml diluted to a final volume of 300 µℓ in DMEM supplemented with 10 percent rabbit platelet-poor plasma serum were placed in the bottom of Boyden blind-well chambers. Polylysine-coated, 5 µ -pore diameter, polycarbonate filters (Nucleopore) were placed over the test solution and 1.75-3.0 x 10⁶ fibroblasts suspended in DMEM added to the top compartment. The chambers were incubated for two and a half hours at 37 °C,
At the end of incubation of the top filter was fixed, stained and evaluated by counting the number of cells that had migrated to the bottom side of the filter. For each experiment five random fields per filter and at least 15 filters per each concentration of sucrose octasulfate were conducted. […]

granulation tissue = test: Subcutaneous Ivalon sponge implantation, histological analysis of granulation tissue formation; format: in vivo, Sprague-Dawley rats; details: for Sponge: score on the 0-4 scale, tested in a similar manner to collagen/sucrose octasulfate, potassium salts
Method: By means of subcutaneous implantation of Ivalon sponges the phase of granulation tissue formation in the repair process can be evaluated. Following a vigorous cleanup procedure the sponge material evokes only minimal inflammatory response. Sterile sponges prepared as set forth in Example 12 were injected with a 50 µl suspension of collagen/sucrose octasulfate suspension prepared as in Example 12. […] The sponges were surgically implanted into 350-500 g, male Sprague-Dawley rats. Before the implantation procedure three rats were anesthetized and their dorsal surfaces shaved and wiped with Predodyne (West Chemical Products, Lynbrook, N.Y.). Six 6 mm incisions were cut in groups of two (one on each side of the vertebral column rostrally, centrally and caudally), spaced equi-distant from each other between the pectoral and pelvic girdles on the dorsal surface. At each incision a pocket was made between the panniculus carnosus and the dermis and two sponges inserted into it, one rostrally and the other caudally; a total of 12 sponges were thus implanted in each animal. The position of each test preparation was alternated between the rostral, central and caudal positions to control the variation due to anatomical location. The incisions were closed with 11-mm Michel wound clips (Propper, Long Island City, N.Y.). Seven days following implantation the animals were sacrificed and the sponges surgically removed with their adhered connective tissue capsules. Controls, sponges injected with either PBS or collagen only were treated in a similar manner. In all, approximately 120 sponges per group were used in the study and randomly selected for biochemical and histologic analysis. The sponges were fixed in formalin and embedded in either plastic or Paraplast following dehydration. Sections were stained with hemotocylin and eosin, trichrome, silver or PAS. […] Mesenchymal cell infiltration was also scored on a predetermined scale from 0-4. […] Although the whole sponge area was used for analysis we noted that the most striking differences between the various treatments were evident in the center of the sponge. Therefore, the histologic appearance of the central zone was selected for presentation.

| Compound | Angiogenesis (rabbit corneas) | Chemokinesis (fibroblasts) | Sponge (granulation tissue) | histologic response in sponge (granulation tissue; similar tests with sucralfate) |
| --- | --- | --- | --- | --- |
| O=S(=O)([O-])OC[C@H]1O[C@@H](O[C@H]2[C@H](OS(=O)(=O)[O-])[C@@H](OS(=O)(=O)[O-])[C@H](OS(=O)(=O)[O-])O[C@@H]2COS(=O)(=O)[O-])[C@H](OS(=O)(=O)[O-])[C@@H](OS(=O)(=O)[O-])[C@H]1OS(=O)(=O)[O-].[K+].[K+].[K+].[K+].[K+].[K+].[K+].[K+] [Beta-Lactose Octasulfate, potassium β -lactose octasulfate] | 3.0 | 3.0 | 3.0 |  |
| O=C[C@H](OS(=O)(=O)[O-])[C@@H](OS(=O)(=O)[O-])[C@H](OS(=O)(=O)[O-])[C@@H](COS(=O)(=O)[O-])OS(=O)(=O)[O-].[K+].[K+].[K+].[K+].[K+] [Glucose Pentasulfate, potassium glucose pentasulfate] | 2.0 | 3.0 | 2.5 |  |
| O=C[C@H](O)[C@@H](O)[C@H](O)[C@H](O)COS(=O)(=O)[O-].[K+] [Glucose-6-Sulfate, potassium D-glucose-6-sulfate, reference compound] | 1 | 1 | 1 |  |
| O=S(=O)(O)OC[C@H]1O[C@@H](OS(=O)(=O)O)[C@H](OS(=O)(=O)O)[C@@H](OS(=O)(=O)O)[C@@H]1O[C@H]1O[C@H](COS(=O)(=O)O)[C@@H](OS(=O)(=O)O)[C@H](OS(=O)(=O)O)[C@H]1OS(=O)(=O)O [Maltose Octasulfate, potassium maltose octasulfate] | 3.0 | 3.0 | 3.0 |  |
| O=C[C@@H](OS(=O)(=O)[O-])[C@@H](OS(=O)(=O)[O-])[C@H](OS(=O)(=O)[O-])[C@@H](COS(=O)(=O)[O-])OS(=O)(=O)[O-].[K+].[K+].[K+].[K+].[K+] [Mannose Pentasulfate, potassium mannose pentasulfate] | 3.0 | 4.0 | 3.0 |  |
| O=S(=O)([O-])OC[C@H]1O[C@H](O[C@H]2O[C@H](COS(=O)(=O)[O-])[C@@H](OS(=O)(=O)[O-])[C@H](OS(=O)(=O)[O-])[C@H]2OS(=O)(=O)[O-])[C@H](OS(=O)(=O)[O-])[C@@H](OS(=O)(=O)[O-])[C@@H]1OS(=O)(=O)[O-].[K+].[K+].[K+].[K+].[K+].[K+].[K+].[K+] [Trehalose Octasulfate, potassium trehalose octasulfate] | 3.0 | 2.0 | 3.0 |  |
| potassium melezitose persulfate [Melezitose Undecasulfate] | 1 | 1 | 1 |  |
| potassium stachyose persulfate [Stachyose Tetradecasulfate] | 2.5 | 2.0 | 2.5 |  |
| potassium sucrose trisulfate | 2.0 | 3.0 | 2.5 |  |
| sucralfate [reference compound] |  |  |  | strong inflammatory response with no neovascularization or fibroblast migration |
